Legend:
rice blast = experiment: microbe, parasite or virus in culture; assay type: cell-based; conditions: Pyricularia oryzae; for inhibition at 25 ppm: read-out: inhibition rate against rice blast, 25 ppm, in vitro
cucumber gray mold = experiment: fungicidal activity in vitro (inhibition rate) against cucumber gray mold; assay type: cell-based; conditions: 25 ppm, in vitro; read-out: inhibition rate against cucumber gray mold
Diamond back moth = experiment: insecticidal activity against diamond back moth, airbrush spray; assay type: in vivo; conditions: 72 h
Summary of the method: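 Airbrush leaf-disc spray test: both faces of 2 cm cabbage discs received 0.5 ml of test solution at 0.7 kg/cm^2. Solutions were made in acetone:methanol (1:1) and brought to concentration with 0.1% Tween 80 in water. Ten second-instar larvae per disc, triplicates, were held at 25° C and 60˜70% R.H., with mortality recorded at 72 hrs.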

armyworm = experiment: bioactivity test against armyworm, airbrush spray; assay type: in vivo; conditions: 72 h
[1] = system: Green peach aphids (Myzus Persicae Sulzer); experiment: bioactivity test against green peach aphid, airbrush foliar spray; assay type: in vivo; conditions: Myzus persicae, foliar, 48 h; for pest or weed control at 10 µg/mL: 10 mg/L; for pest or weed control at 100 µg/mL: 100 mg/L; for pest or weed control at 600 µg/mL: 600 mg/L
Summary of the method: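 Aphids (15-30 per cabbage leaf disc) on moist filter paper were airbrush-sprayed at 10 psi, 0.5 mL, with compound from acetone:methanol (1:1) diluted in water with 0.1% tween 80. Held at 25±1 C, 60±5% RH; survivors counted after 48 hrs to give death rates.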

corn rust = experiment: protectant activity in vivo against corn rust; conditions: Zea mays, 168 h; for pest or weed control at 6.25 ppm: read-out: protectant activity against corn rust in vivo, 6.25 ppm; for pest or weed control at 25 ppm: read-out: protectant activity against corn rust in vivo, 25 ppm; for pest or weed control at 100 ppm: read-out: protectant activity against corn rust in vivo, 100 ppm; for pest or weed control at 400 ppm: read-out: protectant activity against corn rust in vivo, 400 ppm
wheat powdery mildew = experiment: protectant activity in vivo against wheat powdery mildew; conditions: Triticum aestivum, 168 h; for pest or weed control at 6.25 µg/mL: read-out: control effect against wheat powdery mildew (%), 6.25 mg/L; for pest or weed control at 25 µg/mL: read-out: control effect against wheat powdery mildew (%), 25 mg/L; for pest or weed control at 100 µg/mL: read-out: control effect against wheat powdery mildew (%), 100 mg/L; for pest or weed control at 400 µg/mL: read-out: control effect against wheat powdery mildew (%), 400 mg/L; for pest or weed control at 400 ppm: read-out: protectant activity against wheat powdery mildew in vivo, 400 ppm
carmine spider mite = experiment: bioactivity test against carmine spider mite, airbrush spray; assay type: in vivo; conditions: Tetranychus cinnabarinus, 72 h
Summary of the method: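 Broadbean seedlings infested with adult mites were sprayed with compound (acetone/methanol stock diluted in 0.1% Tween 80 water) by airbrush at 0.7 kg/cm^2, 0.5 ml. Three replicates were run. Mortality was scored after 72 hrs.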

cucumber downy mildew = experiment: protectant activity in vivo against cucumber downy mildew; conditions: Cucumis sativus, 168 h; for pest or weed control at 100 ppm: read-out: protectant activity against cucumber downy mildew in vivo, 100 ppm; for pest or weed control at 400 ppm: read-out: protectant activity against cucumber downy mildew in vivo, 400 ppm
[2] = contrastive test, read-out: Insecticidal activity against peach aphid (%)

Row | SMILES | inhibition at 25 ppm (cucumber gray mold) [%] | pest or weed control at 10 µg/mL [1, 2] [%] | pest or weed control at 100 µg/mL [1, 2] [%] | pest or weed control at 600 µg/mL [1, 2] [%] | pest or weed control at 6.25 µg/mL (wheat powdery mildew; protectant activity) [%] | pest or weed control at 25 µg/mL (wheat powdery mildew; protectant activity) [%] | pest or weed control at 100 µg/mL (wheat powdery mildew; protectant activity) [%] | pest or weed control at 400 µg/mL (wheat powdery mildew; protectant activity) [%] | inhibition at 25 ppm (rice blast) [%] | pest or weed control at 600 ppm (armyworm; mortality after 72 h) [%] | pest or weed control at 10 ppm ([1]; death rate after 48 hrs) [%] | pest or weed control at 100 ppm ([1]; death rate after 48 hrs) [%] | pest or weed control at 600 ppm ([1]; death rate after 48 hrs) [%] | pest or weed control at 100 ppm (carmine spider mite; mortality after 72 hrs) [%] | pest or weed control at 600 ppm (carmine spider mite; mortality after 72 hrs) [%] | pest or weed control at 6.25 ppm (corn rust) [%] | pest or weed control at 25 ppm (corn rust) [%] | pest or weed control at 100 ppm (corn rust) [%] | pest or weed control at 400 ppm (corn rust) [%] | pest or weed control at 400 ppm (wheat powdery mildew) [%] | other results
1 | Cc1ncnc(NCc2ccc(Oc3ccc(C(F)(F)F)cc3Cl)cc2)c1Cl [CK51, reference compound] | 0 | 0 | 50 | 100 | 0 | 40 | 80 | 100 |  |  |  |  |  |  |  |  |  |  |  |  | inhibition at 8.3 ppm (rice blast; read-out: inhibition rate against rice blast, 8.3 ppm, in vitro): 0%; pest or weed control at 600 µg/mL (Diamond back moth; 600 mg/L): 57%; pest or weed control at 600 µg/mL (armyworm; 600 mg/L, read-out: Insecticidal activity against armyworm (%)): 43%; pest or weed control at 6.25 µg/mL (corn rust; read-out: control effect against corn rust (%), 6.25 mg/L, protectant activity): 0%; pest or weed control at 25 µg/mL (corn rust; read-out: control effect against corn rust (%), 25 mg/L, protectant activity): 0%; pest or weed control at 100 µg/mL (corn rust; read-out: control effect against corn rust (%), 100 mg/L, protectant activity): 20%; pest or weed control at 400 µg/mL (corn rust; read-out: control effect against corn rust (%), 400 mg/L, protectant activity): 80%
2 | FC(F)c1ncnc(NCCc2ccc(Oc3ccc(C(F)(F)F)cn3)cc2)c1Cl [Compound I-2342] | 100 |  |  |  | 100 | 100 | 100 | 100 | 80 to 99 | 100 | 100 | 100 | 100 | 100 | 100 | 100 | 100 | 100 | 100 | 100 | pest or weed control at 0.4 µg/mL (wheat powdery mildew; read-out: control effect against wheat powdery mildew (%), 0.4 mg/L, protectant activity): 60%; pest or weed control at 1.6 µg/mL (wheat powdery mildew; read-out: control effect against wheat powdery mildew (%), 1.6 mg/L, protectant activity): 95%; pest or weed control at 6.25 ppm (wheat powdery mildew; read-out: protectant activity against wheat powdery mildew in vivo, 6.25 ppm): 100%; pest or weed control at 25 ppm (wheat powdery mildew; read-out: protectant activity against wheat powdery mildew in vivo, 25 ppm): 100%; pest or weed control at 100 ppm (wheat powdery mildew; read-out: protectant activity against wheat powdery mildew in vivo, 100 ppm): 100%
3 | Cc1ncnc(NCCc2ccc(Oc3ccc(C(F)(F)F)cc3)cc2)c1Cl [II-69] | 80 to 99 | 100 | 100 | 100 |  |  |  |  | 80 to 99 | 100 | 100 | 100 | 100 | 100 | 100 |  | 100 | 100 | 100 | 100 | pest or weed control at 100 ppm (armyworm; 100 ppm, mortality after 72 h): 80 to 99%; pest or weed control at 2.5 µg/mL ([1]; 2.5 mg/L, contrastive test, read-out: Insecticidal activity against peach aphid (%)): 81%; pest or weed control at 5 µg/mL ([1]; 5 mg/L, contrastive test, read-out: Insecticidal activity against peach aphid (%)): 100%; pest or weed control at 2.5 ppm ([1]; 2.5 ppm, death rate after 48 hrs): 80 to 99%; pest or weed control at 5 ppm ([1]; 5 ppm, death rate after 48 hrs): 100%; pest or weed control at 10 µg/mL (carmine spider mite; 10 mg/L, contrastive test, read-out: Insecticidal activity against carmine spider mite (% )): 90%; pest or weed control at 100 µg/mL (carmine spider mite; 100 mg/L, contrastive test, read-out: Insecticidal activity against carmine spider mite (% )): 100%; pest or weed control at 600 µg/mL (carmine spider mite; 600 mg/L, contrastive test, read-out: Insecticidal activity against carmine spider mite (% )): 100%; pest or weed control at 10 ppm (carmine spider mite; 10 ppm, mortality after 72 hrs): 80 to 99%; pest or weed control at 100 ppm (cucumber downy mildew): 80 to 99%; pest or weed control at 400 ppm (cucumber downy mildew): 100%
4 | FC(F)c1ncnc(NCCc2ccc(Oc3ccc(Cl)cc3Cl)nc2)c1Cl [III-622] | 80 to 99 |  |  |  |  |  |  |  | 80 to 99 |  |  |  | 100 |  |  | 80 to 99 | 100 | 100 | 100 | 100 | pest or weed control at 600 ppm (Diamond back moth; 600 ppm, mortality after 72 hrs, read-out: control (test results against diamond back moth)): 100%; pest or weed control at 6.25 µg/mL (cucumber downy mildew; read-out: control effect against cucumber downy mildew (%), 6.25 mg/L, protectant activity): 98%; pest or weed control at 12.5 µg/mL (cucumber downy mildew; read-out: control effect against cucumber downy mildew (%), 12.5 mg/L, protectant activity): 100%; pest or weed control at 25 µg/mL (cucumber downy mildew; read-out: control effect against cucumber downy mildew (%), 25 mg/L, protectant activity): 100%; pest or weed control at 50 µg/mL (cucumber downy mildew; read-out: control effect against cucumber downy mildew (%), 50 mg/L, protectant activity): 100%; pest or weed control at 100 µg/mL (cucumber downy mildew; read-out: control effect against cucumber downy mildew (%), 100 mg/L, protectant activity): 100%; pest or weed control at 400 µg/mL (cucumber downy mildew; read-out: control effect against cucumber downy mildew (%), 400 mg/L, protectant activity): 100%; pest or weed control at 6.25 ppm (cucumber downy mildew; read-out: protectant activity against cucumber downy mildew in vivo, 6.25 ppm): 80 to 99%; pest or weed control at 12.5 ppm (cucumber downy mildew; read-out: protectant activity against cucumber downy mildew in vivo, 12.5 ppm): 100%; pest or weed control at 25 ppm (cucumber downy mildew; read-out: protectant activity against cucumber downy mildew in vivo, 25 ppm): 100%; pest or weed control at 50 ppm (cucumber downy mildew; read-out: protectant activity against cucumber downy mildew in vivo, 50 ppm): 100%; pest or weed control at 100 ppm (cucumber downy mildew): 100%; pest or weed control at 400 ppm (cucumber downy mildew): 100%
